Measured values as given in ChEMBL document CHEMBL1127118 (Bioorg Med Chem Lett, 1993).
Where “and” joins values, the source holds several entries; their conditions need not be identical. Equal values may be shown once.

How the values were obtained:
[1] = target: T1, 5-hydroxytryptamine receptor 1A (Rattus norvegicus, UniProt P19327); experiment: Displacement of [3H]8-OH-DPAT from rat hippocampal 5-hydroxytryptamine 1A receptor; assay type: tissue-based, Hippocampus
T1 sequence (P19327 whole entry): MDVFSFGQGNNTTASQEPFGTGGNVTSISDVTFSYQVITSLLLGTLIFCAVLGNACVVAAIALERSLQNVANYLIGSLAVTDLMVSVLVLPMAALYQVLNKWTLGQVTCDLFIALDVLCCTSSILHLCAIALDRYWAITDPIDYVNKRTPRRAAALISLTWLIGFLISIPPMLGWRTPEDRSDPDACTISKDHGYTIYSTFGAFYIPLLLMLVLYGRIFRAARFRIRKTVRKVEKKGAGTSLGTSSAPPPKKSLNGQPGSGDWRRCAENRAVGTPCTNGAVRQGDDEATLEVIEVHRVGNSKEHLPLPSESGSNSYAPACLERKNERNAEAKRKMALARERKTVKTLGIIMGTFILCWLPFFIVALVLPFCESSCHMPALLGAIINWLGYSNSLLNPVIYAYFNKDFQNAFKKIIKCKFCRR

[2] = target: 5-hydroxytryptamine receptor 1B (Rattus norvegicus, UniProt P28564); experiment: Binding affinity against 5-hydroxytryptamine 1B receptor in rat striatal membranes using [3H]5-HT as radioligand; assay type: cell membranes, Striatum, Membrane
Sequence of 5-hydroxytryptamine receptor 1B (P28564 whole entry): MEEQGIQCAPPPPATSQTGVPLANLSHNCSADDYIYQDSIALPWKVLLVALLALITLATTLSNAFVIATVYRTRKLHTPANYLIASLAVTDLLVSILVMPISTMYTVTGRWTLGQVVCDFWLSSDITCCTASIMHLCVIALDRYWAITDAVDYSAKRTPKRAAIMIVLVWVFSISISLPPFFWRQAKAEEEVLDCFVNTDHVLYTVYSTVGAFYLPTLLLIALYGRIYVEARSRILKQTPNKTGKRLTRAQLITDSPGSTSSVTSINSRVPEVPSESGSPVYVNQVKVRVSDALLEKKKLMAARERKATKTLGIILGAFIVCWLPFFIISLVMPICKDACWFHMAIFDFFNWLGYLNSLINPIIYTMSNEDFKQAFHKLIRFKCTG

[3] = target: T1, 5-hydroxytryptamine receptor 1A; experiment: The compound was evaluated for binding affinity against 5-hydroxytryptamine 1A receptor in rat hippocampal membranes using [3H]8-OH-DPAT as radioligand in the presence of 1 mM of MnCl2; assay type: cell membranes, Hippocampus
[4] = target: T1, 5-hydroxytryptamine receptor 1A; experiment: The compound was evaluated for binding affinity against 5-hydroxytryptamine 1A receptor in rat hippocampal membranes using [3H]8-OH-DPAT as radioligand in the presence of 3*10e-5 M GTP gamma S; assay type: cell membranes, Hippocampus

Row | Compound | Ki [1] | Ki [2] | Ki [3] | Ki [4]
1 | CCCN(CCC)C1CCc2cccc(OC)c2C1 (stereo not drawn) | 3.05 nM | 3970 nM | – | –
2 | COc1cccc2c1CC(N)CC2 (stereo not drawn) | 158 nM | 902 nM | – | –
3 | CCCN(CCC)C1CCc2c(C)ccc(OC)c2C1 (stereo not drawn) | 115 nM | 575 nM | – | –
4 | COc1cc2ccccc2c2c1CC(N)CC2 (stereo not drawn) | 1060 nM | 76.3 nM | – | –
5 | COc1ccc(C)c2c1CC(N)CC2 (stereo not drawn) | 436 nM | > 10000 nM | – | –
6 | CCCN(CCC)C1CCc2cc3ccccc3c(O)c2C1 (stereo not drawn) | 2520 nM | > 1000 nM | – | –
7 | CCCN(CCC)C1CCc2c(c(OC)cc3ccccc23)C1 (stereo not drawn) | 1300 nM | 6340 nM | – | –
8 | CCCN(CCC)C1CCc2c(C)ccc(O)c2C1 (stereo not drawn) | 18.4 nM and 30.8 nM | > 10000 nM | 46.6 nM | 81.1 nM
9 | COc1c2c(cc3ccccc13)CCC(N)C2 (stereo not drawn) | 2520 nM | 23 nM | – | –
10 | CC(C)(C)NCC(O)COc1cccc2c1SCCC2 (stereo not drawn) [TERTATOLOL] | 18.2 nM | – | 7.71 nM | 37.6 nM
